Data on two compounds can be found in ChEMBL document CHEMBL5726379, “Selective histone deactylase 6 inhibitors” (2017).

The target of one assay is Histone deacetylase 1 (Homo sapiens, UniProt Q13547).
Assay [1] concerns the target T1, Protein deacetylase HDAC6 (Homo sapiens, UniProt Q9UBN7).
T1 sequence (Q9UBN7 whole entry): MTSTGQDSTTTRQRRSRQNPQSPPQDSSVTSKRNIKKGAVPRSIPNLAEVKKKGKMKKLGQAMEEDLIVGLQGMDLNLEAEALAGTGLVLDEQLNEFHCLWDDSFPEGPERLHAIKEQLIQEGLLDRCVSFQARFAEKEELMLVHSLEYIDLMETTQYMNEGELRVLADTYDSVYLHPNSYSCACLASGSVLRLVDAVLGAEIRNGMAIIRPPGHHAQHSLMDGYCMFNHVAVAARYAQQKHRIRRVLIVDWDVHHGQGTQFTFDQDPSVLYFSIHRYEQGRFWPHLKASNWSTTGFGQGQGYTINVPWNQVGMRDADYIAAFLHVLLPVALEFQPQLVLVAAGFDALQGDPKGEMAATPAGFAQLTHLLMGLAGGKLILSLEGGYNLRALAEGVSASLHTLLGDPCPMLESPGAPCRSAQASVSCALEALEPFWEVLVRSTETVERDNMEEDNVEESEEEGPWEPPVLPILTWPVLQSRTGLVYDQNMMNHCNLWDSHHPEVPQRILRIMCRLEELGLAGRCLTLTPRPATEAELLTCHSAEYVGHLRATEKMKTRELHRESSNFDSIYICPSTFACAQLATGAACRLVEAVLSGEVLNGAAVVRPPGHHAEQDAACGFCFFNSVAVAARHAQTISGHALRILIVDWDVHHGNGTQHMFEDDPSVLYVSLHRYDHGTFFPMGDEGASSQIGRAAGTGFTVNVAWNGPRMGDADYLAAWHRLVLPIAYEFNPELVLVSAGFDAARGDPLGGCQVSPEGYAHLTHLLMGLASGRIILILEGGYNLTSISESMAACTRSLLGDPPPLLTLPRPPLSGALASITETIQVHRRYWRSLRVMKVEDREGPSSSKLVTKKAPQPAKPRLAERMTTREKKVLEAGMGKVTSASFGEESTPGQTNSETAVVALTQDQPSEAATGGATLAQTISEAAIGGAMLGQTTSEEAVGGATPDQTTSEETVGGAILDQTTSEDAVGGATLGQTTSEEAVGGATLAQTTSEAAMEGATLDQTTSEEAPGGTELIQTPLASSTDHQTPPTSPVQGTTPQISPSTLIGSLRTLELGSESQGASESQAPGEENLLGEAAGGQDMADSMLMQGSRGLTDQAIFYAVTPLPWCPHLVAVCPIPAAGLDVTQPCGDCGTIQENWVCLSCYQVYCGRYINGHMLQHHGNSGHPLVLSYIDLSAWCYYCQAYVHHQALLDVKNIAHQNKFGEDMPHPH

Broadly, the pIC50 is the negative decadic logarithm of the IC50, by convention in mol/L.

pIC50: −log10 of the molar value.

Chain of Histone deacetylase 1 (Q13547 whole entry): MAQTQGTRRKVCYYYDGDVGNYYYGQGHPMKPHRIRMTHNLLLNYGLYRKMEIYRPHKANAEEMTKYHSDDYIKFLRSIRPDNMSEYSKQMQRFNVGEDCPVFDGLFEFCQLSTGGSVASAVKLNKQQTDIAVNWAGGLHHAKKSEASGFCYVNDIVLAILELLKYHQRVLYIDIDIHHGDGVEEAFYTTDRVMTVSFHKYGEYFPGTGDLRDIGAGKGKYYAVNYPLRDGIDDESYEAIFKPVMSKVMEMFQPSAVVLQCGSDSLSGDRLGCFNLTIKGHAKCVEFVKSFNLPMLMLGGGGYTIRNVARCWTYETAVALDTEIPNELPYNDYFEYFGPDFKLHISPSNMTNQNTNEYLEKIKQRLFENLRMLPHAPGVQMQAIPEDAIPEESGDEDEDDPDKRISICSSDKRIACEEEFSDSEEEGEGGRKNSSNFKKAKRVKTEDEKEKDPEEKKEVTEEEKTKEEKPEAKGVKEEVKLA

Regarding `CCCCN(Cc1ccc(C(=O)NO)cc1)C(=O)Nc1cccc(N(C)C)c1`, the negative-log IC50 (pIC50) was 6.22 against Histone deacetylase 1 and 8.21 in assay [1].
For `O=C(NCc1ccc(C(=O)NO)cc1)Nc1ccc(CO)cc1` the same measures were 5.97 and 8.08.
